The NIST ThermoML archive (doi:10.1021/je025657+)
Values joined by “and” are separate entries in the source; they are usually repeats but may differ in a detail not shown here. Equal values may be shown once.

Conditions: for vapor or sublimation pressure: Closed cell (Static) method

COC(F)(F)F [trifluoromethoxymethane]
Conditions | mass density [kg/m3]
350 K, 2141.2 kPa, Liquid | 873.54
350 K, 2548.5 kPa, Liquid | 883.49
350 K, 3078 kPa, Liquid | 894.77
350 K, 3561.7 kPa, Liquid | 903.94
350 K, 4061.4 kPa, Liquid | 912.5
350 K, 4604.4 kPa, Liquid | 920.96
350 K, 5110.9 kPa, Liquid | 928.26
350 K, 5614.7 kPa, Liquid | 935
350 K, 6145.6 kPa, Liquid | 941.66
350 K, 6708.6 kPa, Liquid | 948.27
350 K, 7180.7 kPa, Liquid | 953.51
360 K, 2566.6 kPa, Liquid | 806.04
360 K, 2595.3 kPa, Liquid | 807.47
360 K, 2674 kPa, Liquid | 811
360 K, 3046.9 kPa, Liquid | 825.94
360 K, 3567.7 kPa, Liquid | 842.69
360 K, 4099.1 kPa, Liquid | 856.85
360 K, 4614.4 kPa, Liquid | 868.64
360 K, 5110 kPa, Liquid | 878.67
360 K, 5611.7 kPa, Liquid | 887.84
360 K, 6201.7 kPa, Liquid | 897.63
360 K, 6215.7 kPa, Liquid | 897.87
360 K, 6705.8 kPa, Liquid | 905.3
360 K, 7100.8 kPa, Liquid | 910.94
370 K, 3130.2 kPa, Liquid | 712.6
370 K, 3147.8 kPa, Liquid | 715.08
370 K, 3586 kPa, Liquid | 754.94
370 K, 4068.1 kPa, Liquid | 781.44
370 K, 4642.5 kPa, Liquid | 804.25
370 K, 5159.1 kPa, Liquid | 820.53
370 K, 5641.4 kPa, Liquid | 833.56
370 K, 6176.7 kPa, Liquid | 846.09
370 K, 6712.7 kPa, Liquid | 857.24
370 K, 7155.1 kPa, Liquid | 865.58
380 K, 345.8 kPa, Gas | 11.4
380 K, 411.6 kPa, Gas | 13.64
380 K, 637.2 kPa, Gas | 21.72
380 K, 1069 kPa, Gas | 38.43
380 K, 1190.9 kPa, Gas | 43.52
380 K, 1736.8 kPa, Gas | 68.74
380 K, 2282.2 kPa, Gas | 99.68
380 K, 2913 kPa, Gas | 148.72
380 K, 3383.7 kPa, Gas | 207.93
380 K, 3672.6 kPa, Gas | 287.87
380 K, 3791.1 kPa, Gas | 430.78
380 K, 3807.7 kPa, Liquid | 489.63
380 K, 4003.4 kPa, Liquid | 629
380 K, 4596.7 kPa, Liquid | 707.34
380 K, 5159.5 kPa, Liquid | 743.66
380 K, 5653.6 kPa, Liquid | 766.09
380 K, 6175.8 kPa, Liquid | 785.18
380 K, 6672.5 kPa, Liquid | 800.32
380 K, 7138.9 kPa, Liquid | 812.7

Liquid
Conditions | mass density [kg/m3] | vapor or sublimation pressure
350 K | 871.95 | 2074.9 kPa and 2075 kPa and 2071.7 kPa
355 K | – | 2304.3 kPa
360 K | 805.64 | 2553.1 kPa and 2553.8 kPa and 2554.9 kPa
365 K | – | 2823.3 kPa
370 K | 711.78 | 3116.4 kPa and 3117.3 kPa and 3117.1 kPa
375 K | – | 3435.7 kPa

Gas, Burnett expansion method
Conditions | mass density [kg/m3]
360 K, 150.4 kPa | 5.122
360 K, 208.1 kPa | 7.139
360 K, 223.5 kPa | 7.683
360 K, 330.6 kPa | 11.52
360 K, 455 kPa | 16.13
360 K, 484.7 kPa | 17.25
360 K, 704.6 kPa | 25.9
360 K, 952.6 kPa | 36.41
360 K, 1007.9 kPa | 38.88
360 K, 1335.8 kPa | 54.71
360 K, 1406.7 kPa | 58.43
360 K, 1807.1 kPa | 82.26
360 K, 1888.4 kPa | 87.85
360 K, 2309 kPa | 123.6
360 K, 2385.4 kPa | 132
370 K, 154.7 kPa | 5.117
370 K, 215.6 kPa | 7.182
370 K, 230 kPa | 7.677
370 K, 318.3 kPa | 10.73
370 K, 340.6 kPa | 11.52
370 K, 500.1 kPa | 17.24
370 K, 686.1 kPa | 24.23
370 K, 728.8 kPa | 25.88
370 K, 1046.2 kPa | 38.85
370 K, 1393.4 kPa | 54.67
370 K, 1468.6 kPa | 58.37
370 K, 1901.8 kPa | 82.19
370 K, 1990.6 kPa | 87.72
370 K, 2469.3 kPa | 123.6
370 K, 2559 kPa | 132
370 K, 2970.3 kPa | 185.3
370 K, 3031.6 kPa | 197.4
380 K, 147.8 kPa | 4.751
380 K, 158.9 kPa | 5.114
380 K, 220.5 kPa | 7.14
380 K, 236.5 kPa | 7.671
380 K, 327.6 kPa | 10.73
380 K, 350.5 kPa | 11.51
380 K, 483.9 kPa | 16.12
380 K, 515.4 kPa | 17.23
380 K, 708.4 kPa | 24.22
380 K, 752.6 kPa | 25.86
380 K, 1023.5 kPa | 36.37
380 K, 1084 kPa | 38.82
380 K, 1450 kPa | 54.63
380 K, 1529.5 kPa | 58.32
380 K, 1994.4 kPa | 82.12
380 K, 2092.4 kPa | 87.73
380 K, 2624.1 kPa | 123.5
380 K, 2726.4 kPa | 131.8
380 K, 3233.6 kPa | 185.9
380 K, 3316.9 kPa | 198.3
380 K, 3647 kPa | 276.7
380 K, 3686.3 kPa | 294.2
380 K, 3776.4 kPa | 381.1
380 K, 3786.4 kPa | 439.7
